Test results reported in ChEMBL document CHEMBL1201862, “PubChem BioAssay data set” (2004).
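Step 1: Grow cells in 96-well plates. Step 2: Expose to compound for 48 hours at 5 concentrations. Step 3: Interpolate endpoints linearly; if unreached, use highest concentration. Abbreviation: GI50, concentration required for 50% inhibition of growth.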 Active and inactive are the calls of the source. Rule as the data show it: active = GI50 up to about 1.1 µM and inactive = higher.

Tests used:
Test in all cases: DTP human tumour cell line panel, 48 h
RPMI-8226 = system: RPMI-8226
DMS-114 = system: DMS-114
HOP-62 = system: HOP-62
HL-60 = system: HL-60
SNB-19 = system: SNB-19
A549 = system: A549
SF-539 = system: SF-539
IGROV-1 = system: IGROV-1
SW-620 = system: SW-620
SNB-75 = system: SNB-75
UO-31 = system: UO-31
HT-29 = system: HT-29
OVCAR-3 = system: OVCAR-3
SK-MEL-28 = system: SK-MEL-28
HCC 2998 = system: HCC 2998
OVCAR-4 = system: OVCAR-4
SN12C = system: SN12C
CAKI-1 = system: CAKI-1
SK-MEL-5 = system: SK-MEL-5
RXF 393 = system: RXF 393

In the case of `COc1ccc(N2C(=O)/C(=C(\C)c3cc4ccccc4oc3=O)N=C2c2cc([N+](=O)[O-])ccc2Cl)cc1`, the GI50 (RPMI-8226) is reported as 26.5 µM (inactive), the GI50 (DMS-114) is reported as 24.2 µM (inactive) and the GI50 (HOP-62) is reported as > 100 µM (inactive). The GI50 (HL-60) was 22.9 µM (inactive), the GI50 (SNB-19) was 32.7 µM (inactive) and the GI50 (A549) was 34.9 µM (inactive). The GI50 (SF-539) was 29.9 µM (inactive), the GI50 (IGROV-1) was 43.3 µM (inactive) and the GI50 (SW-620) was 33.9 µM (inactive). For the same compound, the GI50 (SNB-75) was 33.3 µM (inactive), the GI50 (UO-31) was 46.9 µM (inactive) and the GI50 (HT-29) was 35.7 µM (inactive). The GI50 (OVCAR-3) was 73.8 µM (inactive), the GI50 (SK-MEL-28) was 66.4 µM (inactive) and the GI50 (HCC 2998) was 43.5 µM (inactive). The GI50 (OVCAR-4) was 38.4 µM (inactive), the GI50 (SN12C) was 35 µM (inactive) and the GI50 (CAKI-1) was 29.6 µM (inactive). For the same compound, the GI50 (SK-MEL-5) was 30.6 µM (inactive).
In the case of `COc1ccc(C2COc3cc(OC(C)=O)c(OC(C)=O)cc3C2)cc1` (configuration not stated), the GI50 (RPMI-8226) is reported as 5.97 µM (inactive), the GI50 (DMS-114) is reported as 5.65 µM (inactive) and the GI50 (HOP-62) is reported as 31.6 µM (inactive). For the same compound, the GI50 (HL-60) was 2.54 µM (inactive), the GI50 (SNB-19) was 7.74 µM (inactive) and the GI50 (A549) was 11.9 µM (inactive). For the same compound, the GI50 (SF-539) was 19.9 µM (inactive), the GI50 (IGROV-1) was 26.2 µM (inactive) and the GI50 (SW-620) was 14.3 µM (inactive). The GI50 (SNB-75) was 7.76 µM (inactive), the GI50 (RXF 393) was 15.5 µM (inactive) and the GI50 (UO-31) was 19.5 µM (inactive). For the same compound, the GI50 (HT-29) was 28.2 µM (inactive), the GI50 (OVCAR-3) was 19.6 µM (inactive) and the GI50 (SK-MEL-28) was 23.8 µM (inactive). For the same compound, the GI50 (HCC 2998) was 23.2 µM (inactive), the GI50 (OVCAR-4) was 16.7 µM (inactive) and the GI50 (SN12C) was 17.5 µM (inactive). For the same compound, the GI50 (CAKI-1) was 23 µM (inactive) and the GI50 (SK-MEL-5) was 25.9 µM (inactive).
With `CCCN1C(=O)/C(=C(/O)C(=O)OCC)C(c2ccc(OC)c(OC)c2)C1=O` (configuration not stated) the GI50 (RPMI-8226) was > 93.8 µM (inactive), the GI50 (DMS-114) was > 100 µM (inactive) and the GI50 (HOP-62) was > 100 µM (inactive). The GI50 (HL-60) was > 100 µM (inactive), the GI50 (SNB-19) was > 100 µM (inactive) and the GI50 (A549) was > 100 µM (inactive). For the same compound, the GI50 (SF-539) was > 100 µM (inactive), the GI50 (IGROV-1) was > 100 µM (inactive) and the GI50 (SW-620) was > 100 µM (inactive). For the same compound, the GI50 (SNB-75) was > 100 µM (inactive), the GI50 (RXF 393) was > 100 µM (inactive) and the GI50 (UO-31) was > 100 µM (inactive). For the same compound, the GI50 (HT-29) was > 100 µM (inactive), the GI50 (OVCAR-3) was > 47.8 µM (inactive) and the GI50 (SK-MEL-28) was > 100 µM (inactive). For the same compound, the GI50 (HCC 2998) was > 100 µM (inactive), the GI50 (OVCAR-4) was > 100 µM (inactive) and the GI50 (SN12C) was > 100 µM (inactive). The GI50 (CAKI-1) was > 100 µM (inactive) and the GI50 (SK-MEL-5) was > 100 µM (inactive).
In the case of `CCN(CC)CCCC(C)Nc1c2ccc(Cl)cc2nc2cc(Cl)ccc12` (configuration not stated), the GI50 (RPMI-8226) is reported as 2.23 µM (inactive), the GI50 (DMS-114) is reported as 4.41 µM (inactive) and the GI50 (HOP-62) is reported as 8.18 µM (inactive). For the same compound, the GI50 (HL-60) was 1.91 µM (inactive), the GI50 (SNB-19) was 17 µM (inactive) and the GI50 (A549) was 4.78 µM (inactive). For the same compound, the GI50 (SF-539) was 4.34 µM (inactive), the GI50 (IGROV-1) was 4.76 µM (inactive) and the GI50 (SW-620) was 3.24 µM (inactive). For the same compound, the GI50 (SNB-75) was 7.03 µM (inactive), the GI50 (RXF 393) was 3.23 µM (inactive) and the GI50 (UO-31) was 3.57 µM (inactive). The GI50 (HT-29) was 2.47 µM (inactive), the GI50 (OVCAR-3) was 5.71 µM (inactive) and the GI50 (SK-MEL-28) was 5.6 µM (inactive). For the same compound, the GI50 (HCC 2998) was 2.16 µM (inactive), the GI50 (OVCAR-4) was 3.37 µM (inactive) and the GI50 (SN12C) was 4.66 µM (inactive). The GI50 (CAKI-1) was 3.22 µM (inactive) and the GI50 (SK-MEL-5) was 4.76 µM (inactive).
With `COc1cccc2c1C(=O)c1c(O)c3c(c(O)c1C2=O)C[C@@](O)(C(=O)CN1CCOCC1)C[C@@H]3OC1CC(N)C(O)C(C)O1` (some centres not stated) the GI50 (RPMI-8226) was 1.61 µM (inactive), the GI50 (DMS-114) was 3.52 µM (inactive) and the GI50 (HOP-62) was 2.48 µM (inactive). The GI50 (HL-60) was 0.895 µM (active), the GI50 (SNB-19) was 2.62 µM (inactive) and the GI50 (A549) was 2.43 µM (inactive). For the same compound, the GI50 (SF-539) was 4.09 µM (inactive), the GI50 (IGROV-1) was 5.7 µM (inactive) and the GI50 (SW-620) was 2.34 µM (inactive). For the same compound, the GI50 (SNB-75) was 5.07 µM (inactive), the GI50 (RXF 393) was 6.41 µM (inactive) and the GI50 (UO-31) was 19 µM (inactive). The GI50 (HT-29) was 0.000764 µM (active), the GI50 (OVCAR-3) was 0.000912 µM (active) and the GI50 (SK-MEL-28) was 12.2 µM (inactive). For the same compound, the GI50 (HCC 2998) was 5.73 µM (inactive), the GI50 (OVCAR-4) was 9.53 µM (inactive) and the GI50 (SN12C) was 2.4 µM (inactive). The GI50 (SK-MEL-5) was 3.11 µM (inactive).
With `C/C(=N/NS(=O)(=O)c1c(C)cc(C)cc1C)c1cccc[n+]1[O-]` the GI50 (RPMI-8226) was > 100 µM (inactive), the GI50 (DMS-114) was > 100 µM (inactive) and the GI50 (HOP-62) was > 100 µM (inactive). The GI50 (HL-60) was > 100 µM (inactive), the GI50 (SNB-19) was > 100 µM (inactive) and the GI50 (A549) was > 100 µM (inactive). The GI50 (SF-539) was > 100 µM (inactive), the GI50 (IGROV-1) was > 100 µM (inactive) and the GI50 (SW-620) was > 100 µM (inactive). For the same compound, the GI50 (SNB-75) was 76.2 µM (inactive), the GI50 (UO-31) was > 100 µM (inactive) and the GI50 (HT-29) was > 100 µM (inactive). The GI50 (OVCAR-3) was > 100 µM (inactive), the GI50 (SK-MEL-28) was > 100 µM (inactive) and the GI50 (HCC 2998) was > 100 µM (inactive). For the same compound, the GI50 (OVCAR-4) was > 100 µM (inactive), the GI50 (SN12C) was > 100 µM (inactive) and the GI50 (CAKI-1) was > 100 µM (inactive). For the same compound, the GI50 (SK-MEL-5) was > 100 µM (inactive).
